What is called MIC is the least concentration at which growth counts as inhibited. A lower MIC goes with greater potency.

From patent US8609608B2, “Antimicrobial peptides” (C3 Jian, Inc., priority 2007, dated 2013) come the findings set out here.

Where no end group is shown, it is not given here.

Test [1] has as its system clinical isolates of S. mutans. The class given is cell-based, Streptococcus mutans. The settings on record: clinical isolates of. In short, it runs like this: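 Bacteria grown anaerobically (80% N2, 10% CO2, 10% H2) to 1×10^8 CFU/ml were diluted to 1×10^5 CFU/ml in Todd-Hewitt or Veillonella medium. Peptide was added in 1:2 dilutions (500–1.95 or 512–2 μg/ml) and plates were incubated 16–20 h at 37° C. MIC was the last clear well by eye, in triplicate.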

For test [2], the system named is S. mutans UA159. Put plainly: Killing kinetics (time-kill assay). The settings on record: peptide 25 μg/ml; for TC, time required to kill 3 log10 of recoverable CFU/ml: UA159. The class given is cell-based, Streptococcus mutans. The protocol: The determination of killing kinetics for fusion and parental peptides was conducted essentially as described previously (Eckert et al. (2006) Antimicrob. Agents Chemother. 50: 1480-1488). Briefly, medium-diluted overnight UA159 cultures (0.5×10^6 to 1×10^6 CFU/ml) were challenged with peptide at a concentration of 25 μg/ml, and at the indicated time intervals (“0 min” indicates untreated samples), a 10-μL aliquot was removed and the surviving CFU were rescued by dilution (1:50) into growth medium and then spread on TH agar plates for quantitation. […] Kinetics were determined by recording the average number of surviving CFU/ml versus incubation time in the presence of peptide (all assays were independently repeated three to five times). For Table 8, time to bactericidal killing (TC) values were defined as the time required for the level of surviving CFU/ml from peptide-treated cultures to fall 3 log10 below the levels of recovered S. mutans CFU/ml from untreated samples.

For test [3], the system named is L. casei ATCC 4646. It is filed as cell-based, Lactobacillus casei. The protocol: (§1) S. mutans clinical isolates UA140 (32), UA159 (1), T8 (33), ATCC 25175, GS5 (Kuramitsu and Ingersoll (1977) Infect Immun., 17: 330-337), and all gram-positive strains listed below (see Table 9) were grown under anaerobic conditions in brain heart infusion or Todd-Hewitt (TH) broth (Difco) overnight at 37° C. prior to use (Eckert et al. (2006) Antimicrob. Agents Chemother. 50: 3651-3657). Veillonella atypica PK1910 was grown in Veillonella medium (Egland et al. (2004) Proc. Natl. Acad. Sci., USA, 101: 16917-16922). All strains were grown in an anaerobic atmosphere of 80% N2, 10% CO2, and 10% H2.
(§2) Antibacterial growth inhibition assays were performed using sterile 96-well plates in a final volume of 100 μl, TH or Veillonella medium as described previously (Qi et al. (2005) FEMS Microbial Lett. 251: 321-326). Briefly, bacterial cells were grown overnight to an optical density at 600 nm of 0.75 to 0.8 (corresponding to 1×10^8 CFU/ml) and then diluted to 1×10^5 CFU/ml in broth and aliquoted onto plates. An appropriate volume of peptide stock solution (5 to 20 mg/ml, in water or methanol, depending on solubility) was then added to the first column of the plate to give 500 μg/ml or 512 μg/ml, followed by serial 1:2 dilutions across the plate to give wells containing peptides ranging from 500 to 1.95 μg/ml or 512 to 2 μg/ml. Methanol alone was also added to control for the effects of the solvent. The plates were then incubated at 37° C. under anaerobic conditions for 16 to 20 h without shaking, and the MIC was determined as the concentration of peptide present in the last clear well after visual inspection. Up to 5% (vol/vol) methanol was found not to be antimicrobial (data not shown). MICs were determined in triplicate for all bacteria.

Test [4] concerns S. gordonii Challis DL1. It is filed as cell-based, Streptococcus gordonii. The protocol: as §1, §2
Test [5] concerns V. atypica PK1910. The class given is cell-based, Veillonella atypica. The protocol:
as §1, §2

Test [6] deals with S. mitis ATCC 903. The class given is cell-based, Streptococcus mitis. The protocol:
as §1, §2

The subject of test [7] is S. sanguinis NY101. The class given is cell-based, Streptococcus sanguinis. The protocol:
as §1, §2

In the case of “RRRWWWFGGGRRRWWWF-NH2 [FRW-5, RRRWWWF-GGG-RRRWWWF*]”, in test [1], the “MIC (fusion library peptides)” value is 16 µg/mL. Also, the “TC, time required to kill 3 log10 of recoverable CFU/ml” value (“TC, time required to kill 3 log10” for short) in test [2] worked out at 270 min.
In the case of “RWRWRWFGGGRWRWRWF-NH2 [FRW-11, RWRWRWF-GGG-RWRWRWF*]”, the “MIC (fusion library peptides)” value in test [1] amounted to 16 µg/mL. In addition, the “TC, time required to kill 3 log10” value in test [2] came to 90 min.
With “RWRWRWFPSGSPRWRWRWF-NH2 [FRW-10, RWRWRWF-PSGSP-RWRWRWF*]”, the “MIC (fusion library peptides)” value in test [1] amounted to 32 µg/mL. Also, the “TC, time required to kill 3 log10” value in test [2] came to 270 min.
The matching figures for “RWRWRWFRWRWRWF-NH2 [FRW-8, RWRWRWFRWRWRWF*]”: 16 µg/mL and 50 min.
As to RRRWWWF-NH2 [Peptide 2C-3, RRRWWWF*], the “MIC L. casei ATCC 4646” value in test [3] was found to be 16 µg/mL. Besides, in test [4], the “MIC S. gordonii Challis DL1” value came to 32 µg/mL. Besides, the “MIC V. atypica PK1910” value in test [5] was 64 µg/mL. The MIC in test [1] fell in the range of 4 to 8 µg/mL. In test [2], the “TC, time required to kill 3 log10” value is given as 220 min. The “MIC S. mitis ATCC 903” value in test [6] worked out at 32 µg/mL. The “MIC S. sanguinis NY101” value in test [7] was determined as 16 µg/mL.
In the case of “RWRWRWFASASARWRWRWF-NH2 [FRW-9, RWRWRWF-ASASA-RWRWRWF*]”, the “MIC (fusion library peptides)” value in test [1] was determined as 16 µg/mL. Besides, the “TC, time required to kill 3 log10” value in test [2] is reported as 45 min.
In the same order, the values of “RRRWWWFASASARRRWWWF-NH2 [FRW-3, RRRWWWF-ASASA-RRRWWWF*]” are 32 µg/mL and 480 min.
In the same order, the values of “RRRWWWFPSGSPRRRWWWF-NH2 [FRW-4, RRRWWWF-PSGSP-RRRWWWF*]” are 32 µg/mL and 420 min.
For the substance “RWRRLLKKLHHLLHGGGIKQLLHFFQRF-NH2 [FBα-21, RWRRLLKKLHHLLH-GGG-IKQLLHFFQRF*]”, in test [1], the “MIC (fusion library peptides)” value worked out at 16 µg/mL. Also, the “fewer CFU/ml recovered from fusion peptide-treated cultures than from parental peptide-treated samples” value in test [2] (after 30 min) is reported as “more than 2 log10”.
